Marks after values point to notes of the source that are not given here.
System: promastigote form of Leishmania (L) amazonensis (LV79 isolate)
Assay: Promastigote viability by the MTT method in RPMI medium
Format: cell-based
Procedure: Viability and/or cellular proliferative assays of promastigote and amastigote forms are also performed by the MTT (diphenyl tetrazolium 3-[4,5-dimethylthiazol-2il]2,5-bromide) method as described by Moreira, et al. (Moreira, M. E. C., Del Portillo, H. A., Milder, R. V., Balanco, J. M. F. and Barcinski, M. A. Heat shock induction of apoptosis in promastigotes of the unicellular organism Leishmania (Leishmania) amazonensis, J. Cell Physiol 167, 305-313, 1996), modified.
After incubation of parasitic forms with the compounds, as described above, for predetermined periods of time for each experiment (24, 48, 72 hours, etc.), an 1.0 mL aliquot of cellular suspension is collected from each culture tube or vial and transferred to microcentrifuge tubes, where they are centrifuged at 14.000 rpm for 3 minutes, the culture medium is aspirated and discharged. To the sedimented cells are add 200 μL of PBS. After that, the volume in PBS of the cellular suspensions is splitted into two wells (duplicates of 100 μL each) of a 96 well culture plate. To each duplicate, […] of MTT (5 mg/mL stock solution, […]) are added. After 1 h or 1 h 30 min, at a temperature of 22° C. (promastigotes) or 34° C. (amastigotes), 100 μL of 10% SDS are added to each well to interrupt the reaction, to lyse the cells and to dissolve the formazan crystals, resulting in an homogeneous blue solution appropriate to the absorbance measure by a spectrophotometer for culture microplates (3550 BIORAD model, Richmond, Calif.), at 595 nm as test wavelength and 690 nm as the reference wavelength.
The optical density (O.D.) values correspond to MTT enzymatic reduction by the metabolic active cells. Consequently, the O.D. is directly proportional to the number of viable cells of the cellular suspension. The progressive increase of O.D. indicates cellular proliferation. Results are expressed as arithmetic average of the optical density duplicates.
Blanks of reaction are obtained by incubating of the specific medium employed in each assay, in addition to MTT, and different HB-1 concentrations. The brownish-yellow color of HB-1 exerts certain interference on the colorimetric assay at different magnitudes, according to the medium and to HB-1 concentration. In general the O.D. blank ranged among assays from 0.002 to 0.020.
In this assay, viability of the promastigote form Leishmania is assessed by the MTT method, when incubated in RPMI medium, in the presence of HB-1 or of its respective controls in DMSO. It is also possible to verify if the effect of HB-1 could be detected in the stationary phase of the growth curve.
For the incubations, promastigotes of the LV79 isolate, in 1st passage and in Day 7 of culture, are employed, from a 1.0×10^6/mL as initial inoculum. The final reaction volume is of 3.0 mL. The results of the viability determination for the promastigote forms of Leishmania (L) amazonensis treated with HB-1 in RPMI medium are shown in the next Table and in FIG. 35.

COc1cc(C=CC(=O)C=Cc2ccc(O)c(OC)c2)ccc1O [HB-1, 1,5-Bis-(4-hydroxy-3-methoxy-phenyl)-penta-1,4-dien-3-one]
Optical Density 595/690 nm (average value from duplicates) (HB-1 3.12 μg/mL, 24 hours): 0.062
Optical Density 595/690 nm (average value from duplicates) (HB-1 3.12 μg/mL, 48 hours): 0.085
Optical Density 595/690 nm (average value from duplicates) (HB-1 3.12 μg/mL, 72 hours): 0.104*
Optical Density 595/690 nm (average value from duplicates) (HB-1 3.12 μg/mL, 144 hours): 0.021
effect in words (HB-1 6.25 μg/mL): leishmaniostatic effect
Optical Density 595/690 nm (average value from duplicates) (HB-1 6.25 μg/mL, 24 hours): 0.039
Optical Density 595/690 nm (average value from duplicates) (HB-1 6.25 μg/mL, 48 hours): 0.033
Optical Density 595/690 nm (average value from duplicates) (HB-1 6.25 μg/mL, 72 hours): 0.044
Optical Density 595/690 nm (average value from duplicates) (HB-1 6.25 μg/mL, 144 hours): 0.031
Optical Density 595/690 nm (average value from duplicates) (HB-1 12.5 μg/mL, 24 hours): 0.010
Optical Density 595/690 nm (average value from duplicates) (HB-1 12.5 μg/mL, 48 hours): 0.004
Optical Density 595/690 nm (average value from duplicates) (HB-1 12.5 μg/mL, 72 hours): 0.003
Optical Density 595/690 nm (average value from duplicates) (HB-1 12.5 μg/mL, 144 hours): 0.005
Optical Density 595/690 nm (average value from duplicates) (HB-1 25 μg/mL, 24 hours): 0.004
Optical Density 595/690 nm (average value from duplicates) (HB-1 25 μg/mL, 48 hours): 0.005
Optical Density 595/690 nm (average value from duplicates) (HB-1 25 μg/mL, 72 hours): 0.002
Optical Density 595/690 nm (average value from duplicates) (HB-1 25 μg/mL, 144 hours): 0.005
Optical Density 595/690 nm (average value from duplicates) (HB-1 50 μg/mL, 24 hours): 0.008
Optical Density 595/690 nm (average value from duplicates) (HB-1 50 μg/mL, 48 hours): 0.004
Optical Density 595/690 nm (average value from duplicates) (HB-1 50 μg/mL, 72 hours): 0.005
Optical Density 595/690 nm (average value from duplicates) (HB-1 50 μg/mL, 144 hours): 0.005
Optical Density 595/690 nm (average value from duplicates) (HB-1 100 μg/mL, 24 hours): 0.016
Optical Density 595/690 nm (average value from duplicates) (HB-1 100 μg/mL, 48 hours): 0.012
Optical Density 595/690 nm (average value from duplicates) (HB-1 100 μg/mL, 72 hours): 0.011
Optical Density 595/690 nm (average value from duplicates) (HB-1 100 μg/mL, 144 hours): 0.011
effect in words (HB-1 above 12.5 μg/mL): clear leishmanicidal effect
cell viability in words (HB-1 between 6.25 μg/mL and 100 μg/mL, since first 24 hours): irreversibly compromise cell viability
